From PubChem BioAssay (NCI)
Values joined by “and” are separate entries in the source; they are usually repeats but may differ in a detail not shown here. Equal entries are not always repeated.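 Method: 48-hour compound exposure of cells in 96-well plates, five concentrations, linear interpolation of endpoints. Here, GI50 denotes the concentration required for 50% inhibition of growth. Definition used: TGI = concentration required for complete inhibition of growth.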

How the values were obtained:
Assay in all cases: DTP human tumour cell line panel, 48 h
[1] = test system: HT29 colon
[2] = test system: OVCAR-4 ovarian
[3] = test system: A549 NSCLC
[4] = test system: MOLT-4 leukemia
[5] = test system: MCF7 breast
[6] = test system: HOP-62 NSCLC
[7] = test system: MDA-MB-435
[8] = test system: NCI-H522 lung
[9] = test system: OVCAR-8 ovarian
[10] = test system: MDA-MB-231 breast

CC1OC(OC2C(OC3CCC4(C)C(CCC5(C)C4CC=C4C6CC(C)(C)CCC6(C(=O)O)CCC45C)C3(C)CO)OCC(O)C2O)C(O)C(O)C1O (configuration not stated)
TGI [1]: 44.7 µM | TGI [2]: 30.5 µM | TGI [3]: 38.2 µM | TGI [4]: 45.8 µM | TGI [5]: 1.91 µM | TGI [6]: > 100 µM | TGI [7]: 43 µM | TGI [8]: 28.8 µM | TGI [9]: 40.1 µM | TGI [10]: 35.4 µM

COc1ccc(C2C(C)C(=O)C(C)C(c3ccc(OC)cc3)N2N=O)cc1 (configuration not stated)
TGI [1]: > 1000 µM | GI50 [2]: > 750 µM | TGI [2]: > 1000 µM | GI50 [3]: 409 µM | TGI [3]: 750 µM and > 1000 µM | TGI [4]: > 1000 µM | TGI [5]: > 1000 µM | GI50 [6]: 24.8 µM and 23.9 µM | TGI [6]: > 80 µM and 60.7 µM and 293 µM | TGI [7]: 343 µM | GI50 [8]: > 750 µM | TGI [8]: > 750 µM | GI50 [9]: 30.5 µM and 248 µM | TGI [9]: 750 µM and > 1000 µM | TGI [10]: 132 µM

OCc1ccc(N2CCc3ccccc3C2)cc1Cl
GI50 [1]: < 0.02 µM | TGI [1]: > 55.4 µM | GI50 [2]: < 0.0149 µM | TGI [2]: 0.0633 µM | GI50 [3]: 0.0604 µM | TGI [3]: 7.59 µM | GI50 [4]: 27.2 µM | TGI [4]: > 78.7 µM | GI50 [5]: < 0.01 µM | TGI [5]: 55.3 µM | GI50 [6]: 0.0222 µM | TGI [6]: 24.7 µM | GI50 [7]: 23.2 µM | TGI [7]: > 75.8 µM | GI50 [8]: 17.2 µM | TGI [8]: 61.1 µM | GI50 [9]: 3.66 µM | TGI [9]: 36.6 µM | GI50 [10]: 12.4 µM | TGI [10]: 40.8 µM

CC(C)(C)c1c2c(c(C(C)(C)C)c3c1OCN(Cc1ccccc1)C3)OCN(Cc1ccccc1)C2
TGI [1]: 37.6 µM | TGI [2]: > 100 µM | TGI [3]: 39.8 µM | TGI [4]: 50.4 µM | TGI [5]: 61.6 µM | TGI [6]: 53.5 µM | TGI [7]: > 100 µM | TGI [8]: 23.2 µM | TGI [9]: 77.3 µM | TGI [10]: 29.3 µM

Cc1ccc2c(c1)S(=O)(=O)c1ccc3ccccc3c1N2
TGI [1]: > 100 µM | TGI [2]: > 100 µM | TGI [3]: > 100 µM | TGI [4]: > 100 µM | TGI [5]: > 100 µM | TGI [6]: > 100 µM | TGI [7]: > 100 µM | TGI [8]: > 100 µM | TGI [9]: > 100 µM | TGI [10]: > 100 µM

O=C(c1ccco1)c1c(C(F)(F)F)n([O-])c2ccc(Cl)cc2[n+]1=O
GI50 [1]: 0.359 µM | TGI [1]: > 100 µM | GI50 [2]: 1.55 µM | TGI [2]: 5.73 µM | GI50 [3]: 0.615 µM | TGI [3]: 2.44 µM | GI50 [4]: 0.0335 µM | TGI [4]: 0.539 µM | GI50 [5]: 0.443 µM | GI50 [6]: 0.194 µM | TGI [6]: 0.617 µM | GI50 [7]: 1.9 µM | TGI [7]: 7.66 µM | GI50 [8]: 1.4 µM | GI50 [9]: 0.799 µM | TGI [9]: 2.1 µM | GI50 [10]: 0.376 µM | TGI [10]: 1.41 µM

O=C(Nc1ccc(/C=C/c2ccc(NC(=O)c3cc(S(=O)(=O)O)c4cccnc4c3O)cc2S(=O)(=O)O)c(S(=O)(=O)O)c1)c1cc(S(=O)(=O)O)c2cccnc2c1O
GI50 [1]: 32.1 µM | TGI [1]: > 100 µM | GI50 [2]: > 54.4 µM | TGI [2]: > 75.2 µM | GI50 [3]: 9.49 µM | TGI [3]: > 56 µM | GI50 [4]: 1.69 µM | TGI [4]: > 28.7 µM | GI50 [5]: 38.5 µM | TGI [5]: > 100 µM | GI50 [6]: 10.9 µM | TGI [6]: > 66.1 µM | GI50 [7]: > 56.7 µM | TGI [7]: > 74.1 µM | GI50 [8]: 15.3 µM | TGI [8]: 47 µM | GI50 [9]: 9.66 µM | TGI [9]: > 72.4 µM | GI50 [10]: 16.3 µM | TGI [10]: > 68.4 µM

COc1cc(C(=O)Nc2cc(OC)c3ccn(C)c3c2)cc2c1C[C@]1(C)CC[C@@H](O)C(C)(C)[C@H]1O2
GI50 [1]: 1.68 µM | TGI [1]: 13.8 µM | GI50 [2]: 4.14 µM | TGI [2]: > 100 µM | TGI [3]: 33.7 µM | GI50 [4]: 0.21 µM | TGI [4]: 1.45 µM | GI50 [5]: 0.612 µM | TGI [5]: 15.1 µM | GI50 [6]: 0.77 µM | TGI [6]: 13.1 µM | GI50 [7]: 1.01 µM | TGI [7]: 3.38 µM | GI50 [8]: 1.44 µM | TGI [8]: 7.4 µM | GI50 [9]: 2.69 µM | TGI [9]: 58 µM | GI50 [10]: 1.86 µM | TGI [10]: 16.5 µM

C[C@@H](Oc1ccc(C(=O)NS(=O)(=O)C(C)(C)C)cc1C(F)(F)F)c1ccc(Oc2ccccc2)cn1
GI50 [1]: 3.1 µM | TGI [1]: 8.38 µM | GI50 [2]: 4.85 µM | TGI [2]: 19.7 µM | GI50 [3]: 5.31 µM | TGI [3]: 20.5 µM | GI50 [4]: 3.65 µM | TGI [4]: 24.9 µM | GI50 [5]: 2.65 µM | TGI [5]: 13.6 µM | GI50 [6]: 3.61 µM | TGI [6]: 17.7 µM | GI50 [7]: 0.585 µM | TGI [7]: 2.09 µM | GI50 [8]: 1.3 µM | TGI [8]: 5.63 µM | GI50 [9]: 3.27 µM | TGI [9]: 12.4 µM | GI50 [10]: 3.6 µM | TGI [10]: 15.5 µM

O=c1ssc(Cl)c1Cl
TGI [1]: > 10 µM | TGI [2]: > 10 µM | TGI [3]: > 10 µM | TGI [4]: 4.9 µM | TGI [5]: > 10 µM | TGI [6]: > 10 µM | TGI [7]: > 10 µM | TGI [8]: > 6.78 µM | TGI [9]: > 10 µM | TGI [10]: > 10 µM

CC(=O)OC12COC1CC(O)C1(C)C(=O)C(O)C3=C(C)C(O)CC(O)(C(OC(=O)c4ccccc4)C21)C3(C)C (configuration not stated)
TGI [1]: > 44.8 µM | TGI [2]: > 100 µM | TGI [3]: > 100 µM | TGI [4]: > 100 µM | TGI [5]: > 100 µM | TGI [6]: > 100 µM | TGI [7]: 1.48 µM | TGI [8]: 11.2 µM | TGI [9]: > 100 µM | TGI [10]: > 100 µM

Oc1cc2ccccc2c(-c2c(O)c(O)cc3ccccc23)c1O
GI50 [1]: 3.95 µM | TGI [1]: 25.3 µM | GI50 [2]: 2.3 µM | TGI [2]: 34.3 µM | GI50 [3]: 0.41 µM | TGI [3]: 19.3 µM | GI50 [4]: 0.897 µM | TGI [4]: 18.7 µM | GI50 [5]: 0.228 µM | TGI [5]: 13 µM | GI50 [6]: 1.03 µM | TGI [6]: 8.39 µM | GI50 [7]: 1.17 µM | TGI [7]: 12.4 µM | GI50 [8]: 2.31 µM | TGI [8]: 21 µM | GI50 [9]: 2.16 µM | TGI [9]: > 24 µM | GI50 [10]: 4.64 µM | TGI [10]: 34.2 µM

CCCCCCCCCCCCOC1C(CNC(=O)C2OC3OC(C)(C)OC3C2NC(=O)Nc2ccc(CC(=O)NC(Cc3ccccc3)C(=O)O)cc2)OC2OC(C)(C)OC21 (configuration not stated)
GI50 [1]: > 25 µM | TGI [1]: > 25 µM | GI50 [2]: > 25 µM | TGI [2]: > 25 µM | GI50 [3]: > 25 µM | TGI [3]: > 25 µM | GI50 [4]: > 25 µM | TGI [4]: > 25 µM | GI50 [5]: > 25 µM | TGI [5]: > 25 µM | GI50 [6]: > 25 µM | TGI [6]: > 25 µM | GI50 [7]: > 25 µM | TGI [7]: > 25 µM | GI50 [8]: > 25 µM | TGI [8]: > 25 µM | GI50 [9]: > 25 µM | TGI [9]: > 25 µM | GI50 [10]: > 25 µM | TGI [10]: > 25 µM

O=C(O)c1ccc(C(=O)O)c(C(=O)Nc2ccc3c(c2)C(=O)c2ccccc2-3)c1
TGI [1]: > 100 µM | TGI [2]: > 100 µM | TGI [3]: > 100 µM | TGI [4]: > 100 µM | TGI [5]: > 100 µM | TGI [6]: > 100 µM | TGI [7]: > 100 µM | TGI [8]: > 100 µM | TGI [9]: > 100 µM | TGI [10]: > 100 µM

COc1ccc(Nc2cc(C)nc(NCCCNc3ccnc4cc(Cl)ccc34)n2)cc1
GI50 [1]: 1.1 µM | TGI [1]: 2.67 µM | GI50 [2]: 1.44 µM | TGI [2]: 4.86 µM | GI50 [3]: 1.91 µM | TGI [3]: 3.86 µM | GI50 [4]: 2.95 µM | TGI [4]: > 100 µM | GI50 [5]: 1.16 µM | TGI [5]: 2.74 µM | GI50 [6]: 1.65 µM | TGI [6]: 3.93 µM | GI50 [7]: 1.35 µM | TGI [7]: 2.64 µM | GI50 [8]: 2.04 µM | TGI [8]: 3.65 µM | GI50 [9]: 2.42 µM | TGI [9]: 6.03 µM | GI50 [10]: 1.55 µM | TGI [10]: 3.31 µM
